Structures can show the parent of a compound that is named as a salt.
Assays:
ZAP-70 = molecular target: T1, ZAP-70 (Homo sapiens, UniProt P43403); assay: ZAP-70 kinobeads assay; assay type: binding; details: competition with immobilized aminopyrido-pyrimidine ligand 24 in cell lysate; ZAP-70 detected by dot blot
T1 construct: endogenous in cells; host or cells: cell lysate
T1 sequence (P43403 1-619): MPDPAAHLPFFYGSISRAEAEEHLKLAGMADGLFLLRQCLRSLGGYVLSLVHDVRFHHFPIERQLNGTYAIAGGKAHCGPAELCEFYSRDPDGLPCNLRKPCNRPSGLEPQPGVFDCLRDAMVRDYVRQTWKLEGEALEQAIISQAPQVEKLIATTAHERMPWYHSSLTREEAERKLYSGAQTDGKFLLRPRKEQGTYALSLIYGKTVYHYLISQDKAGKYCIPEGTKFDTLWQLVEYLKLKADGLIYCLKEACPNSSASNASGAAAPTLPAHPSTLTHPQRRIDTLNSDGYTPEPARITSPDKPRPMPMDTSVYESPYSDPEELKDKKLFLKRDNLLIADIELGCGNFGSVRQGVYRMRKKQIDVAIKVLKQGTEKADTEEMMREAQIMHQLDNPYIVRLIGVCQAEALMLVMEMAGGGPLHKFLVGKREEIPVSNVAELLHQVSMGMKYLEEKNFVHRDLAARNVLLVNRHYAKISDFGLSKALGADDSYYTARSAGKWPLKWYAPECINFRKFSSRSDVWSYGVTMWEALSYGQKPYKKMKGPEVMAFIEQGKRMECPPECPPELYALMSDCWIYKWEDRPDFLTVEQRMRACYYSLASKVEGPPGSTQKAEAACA
Procedure, shortened: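 Cell lysate aliquots incubated with test compounds at various concentrations plus affinity beads carrying immobilized aminopyrido-pyrimidine ligand 24. Bead-captured proteins eluted; ZAP-70 quantified by specific antibody dot blot with infrared detection.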

Jurkat cells = assay: Calcium release assay (Fluo-4 flow cytometry after anti-CD3 stimulation); assay type: cell-based; details: Homo sapiens, Jurkat cell line J77, anti-CD3 activation, read-out: IC50 (Calcium ion release in cells)
Procedure, shortened: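 Jurkat J77 cells loaded with Fluo-4/Pluronic F-127 for 30 min at 37 °C, then incubated with compound at room temperature in the dark in PBS–CaCl2 with 10% FCS. Stimulation with anti-CD3 (0.2 μg/ml final) plus GAM (0.75 μg/ml final) at 37 °C, then flow-cytometric Ca2+ fluorescence acquired for 200 s.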

| IC50 (ZAP-70) [nM] | IC50 (Jurkat cells) [nM] | SMILES |
| --- | --- | --- |
| < 100 | < 100 | CS(=O)(=O)Nc1ccccc1Nc1nc(Nc2cccc(OCCN3CCCCC3)c2)ncc1F [Example 79, N-(2-(5-fluoro-2-(3-(2-(piperidin-1-yl)ethoxy)phenylamino)pyrimidin-4-ylamino)phenyl)methanesulfonamide formate] |
| 100 to 1000 | 100 to 1000 | COc1ccc(Nc2ncc(F)c(Nc3ccccc3NS(C)(=O)=O)n2)cc1OC [Example 36, N-(2-(2-(3,4-dimethoxyphenylamino)-5-fluoropyrimidin-4-ylamino)phenyl)methanesulfonamide] |
| 1000 to 10000 | 100 to 1000 | COc1cc(Nc2ncc(F)c(Nc3ccccc3NS(=O)(=O)c3ccsc3)n2)cc(OC)c1OC [Example 49, N-(2-(5-fluoro-2-(3,4,5-trimethoxyphenylamino)pyrimidin-4-ylamino)phenyl)thiopehene-3-sulfonamide] |
| 100 to 1000 | 100 to 1000 | CS(=O)(=O)Nc1ccccc1Nc1nc(Nc2ccc(OCCCN3CCCCC3)cc2)ncc1F [Example 90] |
| 100 to 1000 | 100 to 1000 | COc1cc(Nc2ncc(Br)c(Nc3ccccc3NS(C)(=O)=O)n2)ccc1C [Example 104, N-(2-(5-bromo-2-(3-methoxy-4-methylphenylamino)pyrimidin-4-ylamino)phenyl)methanesulfonamide] |
| 100 to 1000 | 100 to 1000 | COc1cc(Nc2ncc(F)c(Nc3ccccc3NS(C)(=O)=O)n2)ccc1N1CCCC1 [Example 88, N-(2-(5-fluoro-2-(3-methoxy-4-(pyrrolidin-1-yl)phenylamino)pyrimidin-4-ylamino)phenyl)methanesulfonamide] |
| 100 to 1000 | 100 to 1000 | COc1cc(Nc2ncc(C)c(Nc3ccccc3NS(C)(=O)=O)n2)cc(OC)c1OC [Example 66, N-(2-(5-methyl-2-(3,4,5-trimethoxyphenylamino)pyrimidin-4-ylamino)phenyl)methanesulfonamide] |
| 100 to 1000 | < 100 | COc1cc(Nc2ncc(Br)c(Nc3ccccc3NS(C)(=O)=O)n2)cc(OC)c1 [Example 105, N-(2-(5-bromo-2-(3,5-dimethoxyphenylamino)pyrimidin-4-ylamino)phenyl)methanesulfonamide] |
| 100 to 1000 | 100 to 1000 | COc1cc(Nc2nccc(Nc3ccccc3NS(C)(=O)=O)n2)cc(OC)c1OC [Example 69, N-(2-(2-(3,4,5-trimethoxyphenylamino)pyrimidin-4-ylamino)phenyl)methanesulfonamide] |
| < 100 | < 100 | COc1ccc(Nc2nc(Nc3cc(OC)c(OC)c(OC)c3)ncc2F)c(NS(C)(=O)=O)c1 [Example 173, N-(2-(5-fluoro-2-(3,4,5-trimethoxyphenylamino)pyrimidin-4-ylamino)-5-methoxyphenyl)methanesulfonamide] |
| 100 to 1000 | 100 to 1000 | CS(=O)(=O)Nc1ccccc1Nc1nc(Nc2ccc(NCCN3CCCC3)cc2)ncc1F [Example 93, N-(2-(5-fluoro-2-(4-(2-pyrrolidin-1-yl)ethylamino)phenylamino)pyrimidin-4-ylamino)phenyl)methanesulfonamide formate] |
| < 100 | < 100 | COc1cc(Nc2ncc(Cl)c(Nc3cccc(C)c3NS(C)(=O)=O)n2)cc(OC)c1OC [Example 160, N-(2-(5-chloro-2-(3,4,5-trimethoxyphenylamino)pyrimidin-4-ylamino)-6-methylphenyl)methanesulfonamide] |
| < 100 | < 100 | CS(=O)(=O)Nc1ccccc1Nc1nc(Nc2cccc(OCCN3CCCCC3)c2)ncc1Cl [Example 124, N-(2-(5-chloro-2-(3-(2-(piperidin-1-yl)ethoxy)phenylamino)pyrimidin-4-ylamino)phenyl)methanesulfonamide] |
| < 100 | 100 to 1000 | CS(=O)(=O)Nc1ccccc1Nc1nc(Nc2cccc(OCCCN3CCCCC3)c2)ncc1Cl [Example 134] |
| < 100 | < 100 | COc1cc(Nc2ncc(F)c(Nc3ccc4c(c3NS(C)(=O)=O)OCCO4)n2)cc(OC)c1OC [Example 167, N-(6-(5-fluoro-2-(3,4,5-trimethoxyphenylamino)pyrimidin-4-ylamino)-2,3-dihydrobenzo[b][1,4]dioxin-5-yl)methanesulfonamide] |
| 1000 to 10000 | 100 to 1000 | CS(=O)(=O)Nc1ccccc1Nc1nc(Nc2ccc(F)cc2)ncc1F [Example 2, N-(2-(5-fluoro-2-(4-fluorophenylamino)pyrimidin-4-ylamino)phenyl)methanesulfonamide] |
| 100 to 1000 | 100 to 1000 | CN1C(=O)COc2cc(Nc3ncc(F)c(Nc4ccccc4NS(C)(=O)=O)n3)ccc21 [Example 25, N-(2-(5-fluoro-2-(4-methyl-3-oxo-3,4-dihydro-2H-benzo[b][1,4]oxazin-7-ylamino)pyrimidin-4-ylamino)phenyl)methanesulfonamide] |

Source: US20110098288A1, “SULFONAMIDES AS ZAP-70 INHIBITORS” (priority 2008, published 2011)
